According to the supplement of paper PMC10307832:

Legend:
Experiment in all cases: relative viability (nuclei count vs DMSO), 5 days (fraction); higher = more cells survive
RAF265 + Decitabine = compound: Cn1c(Nc2ccc(C(F)(F)F)cc2)nc2cc(Oc3ccnc(-c4ncc(C(F)(F)F)[nH]4)c3)ccc21 [RAF265] + Nc1ncn([C@H]2C[C@H](O)[C@@H](CO)O2)c(=O)n1 [Decitabine] (partner 2 µM)
In short: (§1)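 Relative viability is defined as nuclei in treated wells over nuclei in vehicle wells. Duplicate plates were run and medians reported. Lung cancer cell lines in 1536-well plates were dosed by pin tool one day after seeding, with one drug or with a fixed anchor-drug dose plus five library-drug doses (not always all listed) in √10 steps, and nuclei were counted after 5 days.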

[1] = compound: Cc1ccc(-n2nc(C(C)(C)C)cc2NC(=O)Nc2ccc(OCCN3CCOCC3)c3ccccc23)cc1 [Doramapimod] + CC(=O)c1c(C)c2cnc(Nc3ccc(N4CCNCC4)cn3)nc2n(C2CCCC2)c1=O [Palbociclib] (partner 0.5 µM)
In short: as §1

IPA-3 + Olaparib = compound: C1=CC=C2C(=C1)C=CC(=C2SSC3=C(C=CC4=CC=CC=C43)O)O [IPA-3] + O=C(c1cc(Cc2n[nH]c(=O)c3ccccc23)ccc1F)N1CCN(C(=O)C2CC2)CC1 [Olaparib] (partner 8 µM)
In short: as §1

Doramapimod + Foretinib = compound: Cc1ccc(-n2nc(C(C)(C)C)cc2NC(=O)Nc2ccc(OCCN3CCOCC3)c3ccccc23)cc1 [Doramapimod] + COc1cc2c(Oc3ccc(NC(=O)C4(C(=O)Nc5ccc(F)cc5)CC4)cc3F)ccnc2cc1OCCCN1CCOCC1 [Foretinib] (partner 0.25 µM)
In short: as §1

| Cell Line | relative viability (RAF265 + Decitabine; first compound 0.01 µM) | relative viability (RAF265 + Decitabine; first compound 0.03162 µM) | relative viability (RAF265 + Decitabine; first compound 0.1 µM) | relative viability (RAF265 + Decitabine; first compound 0.3162 µM) | relative viability (RAF265 + Decitabine; first compound 1 µM) | relative viability ([1]; first compound 0.02 µM) | relative viability ([1]; first compound 0.06325 µM) | relative viability ([1]; first compound 0.2 µM) | relative viability ([1]; first compound 0.6325 µM) | relative viability ([1]; first compound 2 µM) | relative viability (IPA-3 + Olaparib; first compound 0.2 µM) | relative viability (IPA-3 + Olaparib; first compound 0.6325 µM) | relative viability (IPA-3 + Olaparib; first compound 2 µM) | relative viability (IPA-3 + Olaparib; first compound 6.325 µM) | relative viability (IPA-3 + Olaparib; first compound 20 µM) | relative viability (Doramapimod + Foretinib; first compound 0.02 µM) | relative viability (Doramapimod + Foretinib; first compound 0.06325 µM) | relative viability (Doramapimod + Foretinib; first compound 0.2 µM) | relative viability (Doramapimod + Foretinib; first compound 0.6325 µM) | relative viability (Doramapimod + Foretinib; first compound 2 µM) |
| --- | --- | --- | --- | --- | --- | --- | --- | --- | --- | --- | --- | --- | --- | --- | --- | --- | --- | --- | --- | --- |
| NCI-H1437 | 0.613 | 0.622 | 0.571 | 0.661 | 0.574 | 0.337 | 0.31 | 0.278 | 0.368 | 0.304 | 0.629 | 0.597 | 0.639 | 0.608 | 0.565 | 1.37 | 1.39 | 1.35 | 1.38 | 1.2 |
| NCI-H1650 | 0.424 | 0.439 | 0.426 | 0.4 | 0.472 | 0.411 | 0.363 | 0.428 | 0.425 | 0.35 | 0.947 | 0.74 | 0.877 | 0.715 | 0.746 | 1.06 | 1.26 | 1.36 | 1.41 | 1.21 |
| NCI-H1651 | 0.675 | 0.632 | 0.424 | 0.589 | 0.54 | 0.478 | 0.523 | 0.47 | 0.511 | 0.516 | 0.198 | 0.187 | 0.189 | 0.179 | 0.178 | 0.912 | 0.777 | 0.841 | 0.793 | 0.869 |
| NCI-H1666 | 0.851 | 0.915 | 0.71 | 0.722 | 0.694 | 0.734 | 0.641 | 0.69 | 0.704 | 0.613 | 0.854 | 0.655 | 0.764 | 0.749 | 0.836 | 0.948 | 1.05 | 1.02 | 1.08 | 0.971 |
| NCI-H1734 | 0.515 | 0.424 | 0.47 | 0.41 | 0.304 | 0.204 | 0.308 | 0.314 | 0.299 | 0.27 | 0.701 | 0.586 | 0.577 | 0.587 | 0.513 | 0.808 | 0.805 | 0.802 | 0.767 | 0.598 |
| NCI-H1755 | 0.693 | 0.661 | 0.728 | 0.723 | 0.642 | 0.478 | 0.484 | 0.444 | 0.416 | 0.418 | 0.879 | 0.851 | 0.804 | 0.849 | 0.895 | 0.984 | 0.928 | 0.93 | 0.892 | 0.866 |
| NCI-H1793 | 0.554 | 0.463 | 0.438 | 0.332 | 0.277 | 0.317 | 0.293 | 0.283 | 0.287 | 0.273 | 0.699 | 0.773 | 0.923 | 0.893 | 1.2 | 0.618 | 0.752 | 0.822 | 0.865 | 0.597 |
| NCI-H1915 | 0.262 | 0.278 | 0.258 | 0.236 | 0.193 | 0.507 | 0.547 | 0.469 | 0.525 | 0.487 | 0.28 | 0.237 | 0.269 | 0.246 | 0.255 | 1.02 | 1.13 | 1.18 | 1.12 | 0.995 |
| NCI-H1944 | 0.445 | 0.496 | 0.398 | 0.384 | 0.317 | 0.321 | 0.306 | 0.322 | 0.307 | 0.271 | 0.452 | 0.409 | 0.405 | 0.435 | 0.395 | 0.782 | 0.918 | 0.883 | 0.957 | 0.715 |
| NCI-H1975 | 0.403 | 0.364 | 0.308 | 0.263 | 0.254 | 0.583 | 0.576 | 0.488 | 0.596 | 0.512 | 1.03 | 0.761 | 0.815 | 0.705 | 0.495 | 0.961 | 0.965 | 0.952 | 0.988 | 0.924 |
| NCI-H1993 | 0.615 | 0.644 | 0.561 | 0.544 | 0.624 | 0.641 | 0.58 | 0.621 | 0.596 | 0.504 | 1.22 | 1.08 | 0.995 | 1.23 | 1.08 | 0.844 | 0.759 | 0.808 | 0.778 | 0.68 |
| NCI-H2009 | 0.43 | 0.376 | 0.377 | 0.459 | 0.335 | 0.26 | 0.262 | 0.3 | 0.314 | 0.247 | 0.662 | 0.68 | 0.708 | 0.635 | 0.622 | 1.21 | 1.25 | 1.21 | 1.36 | 1.2 |
| NCI-H2023 | 0.26 | 0.208 | 0.198 | 0.215 | 0.176 | 0.299 | 0.367 | 0.296 | 0.392 | 0.323 | 0.514 | 0.503 | 0.624 | 0.547 | 0.395 | 0.833 | 0.732 | 0.691 | 0.823 | 0.605 |
| NCI-H2085 | 0.547 | 0.506 | 0.571 | 0.587 | 0.59 | 0.525 | 0.527 | 0.5 | 0.52 | 0.529 | 0.785 | 0.759 | 0.816 | 0.768 | 0.883 | 1.03 | 0.85 | 0.707 | 1.21 | 1.03 |
| NCI-H2087 | 0.287 | 0.257 | 0.251 | 0.188 | 0.147 | 0.237 | 0.215 | 0.293 | 0.27 | 0.219 | 0.685 | 0.631 | 0.642 | 0.474 | 0.763 | 0.996 | 1.14 | 0.993 | 1.18 | 1.24 |
| NCI-H2126 | 0.607 | 0.56 | 0.563 | 0.573 | 0.412 | 0.378 | 0.352 | 0.373 | 0.336 | 0.326 | 1.05 | 0.886 | 0.877 | 0.875 | 1.06 | 1.21 | 0.988 | 1.14 | 1.34 | 1.2 |
| NCI-H2170 | 0.482 | 0.439 | 0.499 | 0.366 | 0.386 | 0.381 | 0.421 | 0.413 | 0.387 | 0.377 | 0.67 | 0.561 | 0.646 | 0.614 | 0.624 | 0.996 | 0.985 | 1 | 1.05 | 1.01 |
| NCI-H2342 | 0.717 | 0.672 | 0.727 | 0.784 | 0.714 | 0.523 | 0.585 | 0.632 | 0.524 | 0.535 | 0.468 | 0.4 | 0.559 | 0.46 | 0.473 | 0.91 | 1.03 | 0.975 | 1.29 | 1.13 |
| NCI-H2347 | 0.676 | 0.561 | 0.574 | 0.526 | 0.382 | 0.474 | 0.466 | 0.483 | 0.383 | 0.513 | 0.568 | 0.486 | 0.565 | 0.592 | 0.612 | – | 1.03 | 1.1 | 0.861 | 1.11 |
| NCI-H2405 | 0.825 | 0.776 | 0.727 | 0.607 | 0.448 | 0.531 | 0.487 | 0.505 | 0.575 | 0.495 | 0.994 | 0.832 | 0.939 | 0.865 | 0.9 | 1.11 | 1.01 | 1.04 | 1.14 | 0.998 |
| NCI-H3122 | 0.408 | 0.379 | 0.429 | 0.304 | 0.29 | 0.18 | 0.176 | 0.191 | 0.2 | 0.213 | 0.655 | 0.608 | 0.57 | 0.644 | 0.588 | 0.921 | 0.911 | 0.922 | 0.963 | 0.993 |
| PC-3 [JPC-3] | 0.924 | 0.785 | 0.831 | 0.488 | 0.655 | 0.588 | 0.549 | 0.549 | 0.571 | 0.565 | 1.11 | 1.08 | 1.28 | 1.05 | 1.13 | 1.14 | 1.11 | 1.15 | 1.23 | 1.1 |
| PC-14 | 0.24 | 0.204 | 0.231 | 0.163 | 0.226 | 0.552 | 0.594 | 0.487 | 0.552 | 0.508 | 0.286 | 0.29 | 0.335 | 0.222 | 0.134 | 0.939 | 1.03 | 0.997 | 1.13 | 0.91 |
| RERF-LC-KJ | 0.815 | 0.616 | 0.669 | 0.583 | 0.527 | 1.11 | 1.04 | 1.06 | 1.17 | 1.2 | 0.92 | 0.942 | 0.982 | 0.771 | 0.424 | 0.87 | 0.955 | 0.884 | 0.9 | 0.869 |
| SK-LU-1 | 0.847 | 0.597 | 0.508 | 0.569 | 0.414 | 0.4 | 0.4 | 0.396 | 0.401 | 0.337 | 0.536 | 0.456 | 0.494 | 0.389 | 0.466 | 0.805 | 0.82 | 0.847 | 0.873 | 0.759 |
| SK-MES-1 | 0.383 | 0.295 | 0.3 | 0.231 | 0.221 | 0.316 | 0.288 | 0.341 | 0.316 | 0.269 | 0.763 | 0.694 | 0.652 | 0.498 | 0.241 | 0.965 | 0.864 | 0.773 | 1.04 | 0.816 |
| SW 900 | 0.51 | 0.429 | 0.505 | 0.412 | 0.407 | 0.57 | 0.537 | 0.558 | 0.584 | 0.531 | 0.684 | 0.683 | 0.811 | 0.832 | 1.03 | 0.557 | 0.933 | 0.877 | 1.11 | 0.892 |
| SW 1573 | 0.675 | 0.406 | 0.4 | 0.325 | 0.244 | 0.449 | 0.358 | 0.298 | 0.354 | 0.313 | 0.665 | 0.403 | 0.404 | 0.403 | 0.0864 | 0.862 | 0.769 | 0.749 | 0.836 | 0.663 |
